Measurements reported in US20220125747A1, “APPLICATION OF ACTIVE INGREDIENT WGX50 IN ZANTHOXYLUM BUNGEANUM EXTRACT” (Shanghai Jiao Tong University, priority 2020, published 2022).

What was measured:
Format in all cases: cell-based
keratinocytes = assay: cytotoxicity test based on keratinocytes (MTT); conditions: for Cell vitality Mean: keratinocytes, 24 hours, MTT
Description: Embodiment 1, cytotoxicity test based on keratinocytes. Set up 8 concentration gradients, and set up 3 repeating holes under each concentration. At the same time, solvent control hole, zero adjustment hole (KC2500) and positive control hole (PC, 4% Dimethyl sulfoxide, DMSO) are set up in the experiment. After incubation for 24 hours, the cell viability is detected by MTT method, and the maximum safe concentration of cell administration is screened. The MTT test results are shown in Table 1, in which the GraphPad Prism Program software is used for mapping, and T-test statistical analysis is used among all groups. P-value<0.05 indicates significant difference, and P-value<0.01 indicates extremely significant difference. According to the results of MTT assay, the concentration near the inflection point of cell vitality is selected, and after incubation and culture for 24 hours, the cell morphology is observed under the inverted microscope and photographed (20×), and the morphological detection results are shown in FIG. 2.

melanocytes = assay: cytotoxicity test based on melanocytes (MTT); conditions: for Cell vitality Mean: melanocytes, 24 hours
Description: Embodiment 2, cytotoxicity test based on melanocytes. Set up 8 concentration gradients, and set up 3 repeating holes under each concentration. At the same time, solvent control well, Medium-254 well and positive control well (PC, 8% DMSO) are set up in the experiment. After incubation for 24 hours, the cell viability is detected by MTT method, and the maximum safe concentration of cell administration is screened.

IL-1α = assay: anti-inflammatory test of keratinocytes stimulated by UVB, IL-1α ELISA; conditions: for IL-1α Decreased ratio (compared to NC) / IL-1α Average concentration: 24 h; for IL-1α Average concentration: ELISA of culture supernatant
From the text: (§1) 3. Anti-inflammatory test based on UVB (ultraviolet radiation b) stimulation of keratinocytes. The blank control (oil-soluble), solvent control (oil-soluble), positive control and sample groups are grouped in the experiment. The detection indexes are TNFα (a pro-inflammatory factors, the NF-κB signaling pathway mediates and initiates the transcription of TNFα (abbreviation for tumor necrosis factor alpha), and after TNFα is synthesized, it binds to its receptor and in turn activates the NF-κB signaling pathway) and IL1-α (a pro-inflammatory factor being non-hydrophobic polypeptide, which is secreted out of cells after cell membrane damage, and then the pro-inflammatory factor binds to its corresponding receptor IL1R and activates NF-κB to induce inflammatory cascade reaction), the detection and analysis are performed according to the operating manual of the TNFα and IL1-α kits.
(§2) TNFα and IL1-α expression detection process: after 24 hours of incubation, the cell culture supernatant is collected, and the detection and analysis are performed according to the operating instructions of the TNFα and IL1-α kit. When using the T-Test method for statistical analysis, the NC group is compared with the BC group, and the significance is indicated by #, P-value<0.05 is indicated as #, P-value<0.01 is indicated as ##; sample group and positive control group are compared with NC group, and significance is represented by *, P-value<0.05 is represented by *, P-value<0.01 is represented by * *.

TNFα = assay: anti-inflammatory test of keratinocytes stimulated by UVB, TNFα ELISA; conditions: for TNFα Decreased ratio (compared to NC) / TNFα Average concentration: 24 h; for TNFα Average concentration: ELISA of culture supernatant
From the text: as §1
Embodiment 5, anti-inflammatory test of keratinocytes stimulated by UVB.
as §2

CD44 = assay: moisturizing gene test based on keratinocytes (qRT-PCR), CD44; conditions: 5 μM, 24 h
Description: (§3) 1. Moisturizing gene test based on keratinocytes. First, the cytotoxicity of keratinocytes is tested, and then the experimental design is carried out, and a blank control group and a sample group are set up. The detection indexes are AQP3 (aquaporin), CD44 (cell-surface glycoproteins), Filaggrin (protein), claudin-1 (tight junction protein) and HAS2 (hyaluronic acid synthetase). RNA extraction, reverse transcription and fluorescence quantitative PCR are carried out, and the results are calculated by 2^−ΔΔCT method.
(§4) Embodiment 3, moisturizing gene test based on keratinocytes.
(§5) Gene detection process: after incubation for 24 hours, the cells are sampled, and RNA extraction, reverse transcription and fluorescence quantitative PCR detection are carried out according to the kit instruction, and the results are calculated by 2^−ΔΔΔCT method. When statistical analysis is carried out by T-Test method, significance is represented by *, P-value<0.05 is represented by *, and P-value<0.01 is represented by * *.

MC1R = assay: whitening gene test based on melanocytes (qRT-PCR), MC1R; conditions: 100 μM, 24 h
Description: (§6) 2. Whitening gene test based on melanocytes. First, the cytotoxicity of melanocytes is tested, and then the experimental design is carried out, and a blank control group and a sample group are set up. The detection indexes are MC1R (melanocortin receptor), MITF (melanogenesis transcription factor), TYR (melanin synthesis and transport related gene) and TYP-1 (tyrosinase related protein). RNA extraction, reverse transcription and fluorescence quantitative PCR are carried out, and the results are calculated by 2^−ΔΔCT method.
(§7) Embodiment 4, whitening gene test based on melanocytes.
as §5, with “after” for “after incubation for”, “hours of incubation,” for “hours,”, “instructions,” for “instruction,”

TYR = assay: whitening gene test based on melanocytes (qRT-PCR), TYR; conditions: 100 μM, 24 h
Description: as §6, §7
as §5, with “after” for “after incubation for”, “hours of incubation,” for “hours,”, “instructions,” for “instruction,”

Filaggrin = assay: moisturizing gene test based on keratinocytes (qRT-PCR), Filaggrin; conditions: 5 μM, 24 h
Description: as §3, §4, §5

HAS2 = assay: moisturizing gene test based on keratinocytes (qRT-PCR), HAS2; conditions: 5 μM, 24 h
Description: as §3, §4, §5

MITF = assay: whitening gene test based on melanocytes (qRT-PCR), MITF; conditions: 100 μM, 24 h
Description: as §6, §7
as §5, with “after” for “after incubation for”, “hours of incubation,” for “hours,”, “instructions,” for “instruction,”

TRP-1 = assay: whitening gene test based on melanocytes (qRT-PCR), TRP-1; conditions: 100 μM, 24 h
Description: as §6, §7
as §5, with “after” for “after incubation for”, “hours of incubation,” for “hours,”, “instructions,” for “instruction,”

AQP3 gene = assay: moisturizing gene test based on keratinocytes (qRT-PCR), AQP3; conditions: 5 μM, 24 h
Description: as §3, §4
AQP3 aquaporin in the detection index, located on the cell membrane, has the function of transporting water and plays an important role in the process of skin moisturizing.
as §5

Claudin-1 = assay: moisturizing gene test based on keratinocytes (qRT-PCR), Claudin-1; conditions: 5 μM, 24 h
Description: as §3, §4, §5

[1] = 5 μM, compared with the positive control group (so in the source), P-value<0.01

Structure (SMILES): C[S+](C)[O-] [DMSO, Dimethyl sulfoxide, reference compound]
- Cell vitality Mean (keratinocytes; positive control 4% DMSO): 30.27%
- Cell vitality Mean (melanocytes; positive control 8% DMSO): 24.23%

Structure (SMILES): C[C@@H]1C[C@H]2[C@@H]3CCC4=CC(=O)C=C[C@]4(C)[C@@]3(F)[C@@H](O)C[C@]2(C)[C@@]1(O)C(=O)CO [PC, Dexamethasone, reference compound]
- IL-1α Decreased ratio (compared to NC) (IL-1α; 100 μg/mL): 29%
- IL-1α Average concentration (IL-1α; 100 μg/mL): 93.97 pg/mL
- secretion of IL-1α compared with the solvent control group (IL-1α; 100 μg/mL, P-Value<0.05): decreases significantly
- TNFα Decreased ratio (compared to NC) (TNFα; 100 μg/mL): 94%
- TNFα Average concentration (TNFα; 100 μg/mL): 8.34 pg/mL
- secretion of TNFα compared with the solvent control group (TNFα; 100 μg/mL, P-value<0.01): decreases significantly

Structure (SMILES): COc1ccc(CCNC(=O)/C=C/c2ccccc2)cc1OC [WGX50, (E)-N[2-(3,4-dimethoxyphenyl)ethyl]-3-phenylacrylamide]
- IL-1α Decreased ratio (compared to NC) (IL-1α; 5 μM): 67%
- IL-1α Average concentration (IL-1α; 5 μM): 43.65 pg/mL
- secretion of IL-1α (IL-1α; [1]): decreases significantly
- CD44 Increased ratio (compared to BC) (CD44): −21.90%
- CD44 gene expression Mean (2^−ΔΔCT) (CD44): 0.785
- expression of MC1R gene in melanocytes compared with the blank control group (MC1R; P-value<0.01): significantly inhibits
- MC1R Increased ratio (compared to BC) (MC1R; qRT-PCR): 47.2%
- MC1R gene expression Mean (2^−ΔΔCT) (MC1R; qRT-PCR): 0.528
- expression of TYR gene in melanocytes compared with the blank control group (TYR; P-value<0.01): significantly inhibits
- TYR Increased ratio (compared to BC) (TYR; qRT-PCR): 51.8%
- TYR gene expression Mean (2^−ΔΔCT) (TYR; qRT-PCR): 0.488
- Filaggrin Increased ratio (compared to BC) (Filaggrin): 7.20%
- Filaggrin gene expression Mean (2^−ΔΔCT) (Filaggrin): 1.101
- cytotoxicity to keratinocytes (keratinocytes; in the concentration range of 5 μM, MTT and morphological results): no cytotoxicity
- Cell vitality Mean (keratinocytes; 0.5 μM): 106.81%
- Cell vitality Mean (keratinocytes; 1 μM): 93.72%
- Cell vitality Mean (keratinocytes; 2.5 μM): 93.60%
- Cell vitality Mean (keratinocytes; 5 μM): 93.01%
- Cell vitality Mean (keratinocytes; 10 μM): 84.00%
- Cell vitality Mean (keratinocytes; 25 μM): 66.77%
- Cell vitality Mean (keratinocytes; 50 μM): 57.35%
- Cell vitality Mean (keratinocytes; 100 μM): 50.36%
- HAS2 Increased ratio (compared to BC) (HAS2): −14.70%
- HAS2 gene expression Mean (2^−ΔΔCT) (HAS2): 0.898
- cytotoxicity to melanocytes (melanocytes; in the concentration range of 100 μM): no cytotoxicity
- Cell vitality Mean (melanocytes; 0.5 μM): 105.78%
- Cell vitality Mean (melanocytes; 1 μM): 99.02%
- Cell vitality Mean (melanocytes; 2.5 μM): 96.68%
- Cell vitality Mean (melanocytes; 5 μM): 95.56%
- Cell vitality Mean (melanocytes; 10 μM): 99.51%
- Cell vitality Mean (melanocytes; 25 μM): 99.51%
- Cell vitality Mean (melanocytes; 50 μM): 108.86%
- Cell vitality Mean (melanocytes; 100 μM): 96.62%
- expression of MITF gene in melanocytes compared with the blank control group (MITF; P-value<0.01): significantly inhibits
- MITF Increased ratio (compared to BC) (MITF; qRT-PCR): 57.8%
- MITF gene expression Mean (2^−ΔΔCT) (MITF; qRT-PCR): 0.432
- TNFα Decreased ratio (compared to NC) (TNFα; 5 μM): 85%
- TNFα Average concentration (TNFα; 5 μM): 18.97 pg/mL
- secretion of TNFα (TNFα; [1]): decreases significantly
- expression of TYP-1 gene in melanocytes compared with the blank control group (TRP-1; P-value<0.01): significantly inhibits
- TRP-1 Increased ratio (compared to BC) (TRP-1; qRT-PCR): 70.10%
- TRP-1 gene expression Mean (2^−ΔΔCT) (TRP-1; qRT-PCR): 0.304
- expression of AQP3 gene in keratinocytes compared with the blank control group (AQP3 gene; P-value<0.01): significantly promotes
- AQP3 Increased ratio (compared to BC) (AQP3 gene; qRT-PCR): 34.20%
- AQP3 gene expression Mean (2^−ΔΔCT) (AQP3 gene; qRT-PCR): 1.345
- Claudin-1 Increased ratio (compared to BC) (Claudin-1): 17.50%
- Claudin-1 gene expression Mean (2^−ΔΔCT) (Claudin-1): 1.182
